Biological target: Plk1 (Homo sapiens, UniProt P53350)
Assay: biochemical

Sequence of Plk1 (P53350 20-338): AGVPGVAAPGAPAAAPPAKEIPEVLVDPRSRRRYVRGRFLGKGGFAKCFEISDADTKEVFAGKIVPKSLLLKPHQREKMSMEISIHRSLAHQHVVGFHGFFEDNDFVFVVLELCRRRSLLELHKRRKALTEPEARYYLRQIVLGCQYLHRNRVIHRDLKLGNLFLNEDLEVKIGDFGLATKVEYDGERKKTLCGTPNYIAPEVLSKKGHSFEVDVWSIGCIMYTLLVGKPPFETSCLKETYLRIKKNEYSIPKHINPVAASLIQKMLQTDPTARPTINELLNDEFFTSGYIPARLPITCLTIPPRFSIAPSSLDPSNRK

SMILES | Ki
COc1cc(C(=O)N[C@@H]2CCC[C@H]2O)ccc1Nc1ncc2c(n1)N(C1CCCC1)CC(C)(C)C(=O)N2C [Compound I-244, 4-(9-cyclopentyl-5,7,7-trimethyl-6-oxo-6,7,8,9-tetrahydro-5H-pyrimido[4,5-b][1,4]diazepin-2-ylamino)-N-((1R,2R)-2-hydroxycyclopentyl)-3-methoxybenzamide] | < 10 nM
COc1cc(-c2ncc[nH]2)ccc1Nc1ncc2c(n1)N(C1CCCC1)CC(C)(C)C(=O)N2C [Compound I-250, 2-(4-(1H-imidazole-2-yl)-2-methoxyphenylamino)-9-cyclopentyl-5,7,7-trimethyl-8,9-dihydro-5H-pyrimido[4,5-b][1,4]diazepin-6(7H)-one] | < 10 nM
COc1cc(C(=O)N[C@H]2CC[C@H](O)CC2)ccc1Nc1ncc2c(n1)N(C1CCCC1)CC1(CC1)C(=O)N2C [Compound I-251, 4-(9′-cyclopentyl-5′-methyl-6′-oxo-5′,6′,8′,9′-tetrahydrospiro[cyclopropane-1,7′-pyrimido[4,5-b][1,4]diazepine]-2′-ylamino)-N-((1R,4R)-4-hydroxycyclohexyl)-3-methoxybenzamide] | < 10 nM
COc1cc(C(=O)NC[C@@H]2CCCC[C@@H]2O)ccc1Nc1ncc2c(n1)N(C1CCCC1)CC1(CC1)C(=O)N2C [Compound I-252, 4-(9′-cyclopentyl-5′-methyl-6′-oxo-5′,6′,8′,9′-tetrahydrospiro[cyclopropane-1,7′-pyrimido[4,5-b][1,4]diazepine]-2′-ylamino)-N-(((1S,2S)-2-hydroxycyclohexyl)methyl)-3-methoxybenzamide] | < 10 nM
COc1cc(C(=O)NN2CCCC2)ccc1Nc1ncc2c(n1)N(C1CCCC1)CC1(CC1)C(=O)N2C [Compound I-253, 4-(9′-cyclopentyl-5′-methyl-6′-oxo-5′,6′,8′,9′-tetrahydrospiro[cyclopropane-1,7′-pyrimido[4,5-b][1,4]diazepine]-2′-ylamino)-3-methoxy-N-(pyrrolidin-1-yl)benzamide] | < 10 nM
COc1cc(C(=O)NC2(CO)CCCC2)ccc1Nc1ncc2c(n1)N(C1CCCC1)CC(C)(C)C(=O)N2C [Compound I-254, 4-(9-cyclopentyl-5,7,7-trimethyl-6-oxo-6,7,8,9-tetrahydro-5H-pyrimido[4,5-b][1,4]diazepin-2-ylamino)-N-(1-(hydroxymethyl)cyclopentyl)-3-methoxybenzamide] | < 10 nM
COc1cc(C2=NCCN2)ccc1Nc1ncc2c(n1)N(C1CCCC1)CC(C)(C)C(=O)N2C [Compound I-256, 9-cyclopentyl-2-(4-(4,5-dihydro-1H-imidazol-2-yl)-2-methoxyphenylamino)-5,7,7-trimethyl-8,9-dihydro-5H-pyrimido[4,5-b][1,4]diazepin-6(7H)-one] | < 10 nM
COc1cc(C2=NCC(C)(C)N2)ccc1Nc1ncc2c(n1)N(C1CCCC1)CC(C)(C)C(=O)N2C [Compound I-257, 9-cyclopentyl-2-(4-(5,5-dimethyl-4,5-dihydro-1H-imidazol-2-yl)-2-methoxyphenylamino)-5,7,7-trimethyl-8,9-dihydro-5H-pyrimido[4,5-b][1,4]diazepin-6(7H)-one] | < 10 nM
COc1cc(C(=O)N[C@@H]2CC[C@@H](O)C2)ccc1Nc1ncc2c(n1)N(C1CCCC1)CC(C)(C)C(=O)N2C [Compound I-258] | < 10 nM
COc1cc(C(=O)N[C@@H]2CC[C@@H](CO)C2)ccc1Nc1ncc2c(n1)N(C1CCCC1)CC(C)(C)C(=O)N2C [Compound I-260, 4-(9-cyclopentyl-5,7,7-trimethyl-6-oxo-6,7,8,9-tetrahydro-5H-pyrimido[4,5-b][1,4]diazepin-2-ylamino)-N-((1R,3R)-3-(hydroxymethyl)cyclopentyl)-3-methoxybenzamide] | < 10 nM
COc1cc(C(=O)NCCCO)ccc1Nc1ncc2c(n1)N(C1CCCC1)CC1(CC1)C(=O)N2C [Compound I-262, 4-(9′-cyclopentyl-5′-methyl-6′-oxo-5′,6′,8′,9′-tetrahydrospiro[cyclopropane-1,7′-pyrimido[4,5-b][1,4]diazepine]-2′-ylamino)-N-(3-hydroxypropyl)-3-methoxybenzamide] | < 10 nM

Results, then the compound that gave them:

Ki | SMILES
< 10 nM | COc1cc(C(=O)NCc2cc(C)on2)ccc1Nc1ncc2c(n1)N(C1CCCC1)CC(C)(C)C(=O)N2C [Compound I-235, 4-(9-cyclopentyl-5,7,7-trimethyl-6-oxo-6,7,8,9-tetrahydro-5H-pyrimido[4,5-b][1,4]diazepin-2-ylamino)-3-methoxy-N-((5-methylisoxazol-3-yl)methyl)benzamide]
< 10 nM | COc1cc(C(=O)Nc2ncc(C)s2)ccc1Nc1ncc2c(n1)N(C1CCCC1)CC(C)(C)C(=O)N2C [Compound I-236, 4-(9-cyclopentyl-5,7,7-trimethyl-6-oxo-6,7,8,9-tetrahydro-5H-pyrimido[4,5-b][1,4]diazepin-2-ylamino)-3-methoxy-N-(5-methylthiazol-2-yl)benzamide]
< 10 nM | COc1cc(C(=O)NCCOCCO)ccc1Nc1ncc2c(n1)N(C1CCCC1)CC(C)(C)C(=O)N2C [Compound I-237, 4-(9-cyclopentyl-5,7,7-trimethyl-6-oxo-6,7,8,9-tetrahydro-5H-pyrimido[4,5-b][1,4]diazepin-2-ylamino)-N-(2-(2-hydroxyethoxy)ethyl)-3-methoxybenzamide]
< 10 nM | COc1cc(C(=O)NC(C)C)ccc1Nc1ncc2c(n1)N(C1CCCC1)CC(C)(C)C(=O)N2C [Compound I-238, 4-(9-cyclopentyl-5,7,7-trimethyl-6-oxo-6,7,8,9-tetrahydro-5H-pyrimido[4,5-b][1,4]diazepin-2-ylamino)-N-isopropyl-3-methoxybenzamide]
< 10 nM | COc1cc(C(=O)N[C@H](CO)C(C)C)ccc1Nc1ncc2c(n1)N(C1CCCC1)CC(C)(C)C(=O)N2C [Compound I-239, (S)-4-(9-cyclopentyl-5,7,7-trimethyl-6-oxo-6,7,8,9-tetrahydro-5H-pyrimido[4,5-b][1,4]diazepin-2-ylamino)-N-(1-hydroxy-3-methylbutan-2-yl)-3-methoxybenzamide]
< 10 nM | COc1cc(C(=O)NC(C)(C)CO)ccc1Nc1ncc2c(n1)N(C1CCCC1)CC(C)(C)C(=O)N2C [Compound I-240, 4-(9-cyclopentyl-5,7,7-trimethyl-6-oxo-6,7,8,9-tetrahydro-5H-pyrimido[4,5-b][1,4]diazepin-2-ylamino)-N-(1-hydroxy-2-methylpropan-2-yl)-3-methoxybenzamide]
< 10 nM | COc1cc(C(=O)NCCCO)ccc1Nc1ncc2c(n1)N(C1CCCC1)CC(C)(C)C(=O)N2C [Compound I-241]
< 10 nM | COc1cc(C(=O)NC[C@H](O)CO)ccc1Nc1ncc2c(n1)N(C1CCCC1)CC(C)(C)C(=O)N2C [Compound I-242, (S)-4-(9-cyclopentyl-5,7,7-trimethyl-6-oxo-6,7,8,9-tetrahydro-5H-pyrimido[4,5-b][1,4]diazepin-2-ylamino)-N-(2,3-dihydroxypropyl)-3-methoxybenzamide]
< 10 nM | COc1cc(C(=O)NCCC(C)O)ccc1Nc1ncc2c(n1)N(C1CCCC1)CC(C)(C)C(=O)N2C (stereo not shown) [Compound I-243, 4-(9-cyclopentyl-5,7,7-trimethyl-6-oxo-6,7,8,9-tetrahydro-5H-pyrimido[4,5-b][1,4]diazepin-2-ylamino)-N-(3-hydroxybutyl)-3-methoxybenzamide]
< 10 nM | COc1cc(C(=O)NCC2CC2(F)F)ccc1Nc1ncc2c(n1)N(C1CCCC1)CC(C)(C)C(=O)N2C (stereo not shown) [Compound I-245, 4-(9-cyclopentyl-5,7,7-trimethyl-6-oxo-6,7,8,9-tetrahydro-5H-pyrimido[4,5-b][1,4]diazepin-2-ylamino)-N-((2,2-difluorocyclopropyl)methyl)-3-methoxybenzamide]
< 10 nM | COc1cc(C(=O)NCC2CCC2)ccc1Nc1ncc2c(n1)N(C1CCCC1)CC(C)(C)C(=O)N2C [Compound I-246, N-(cyclobutylmethyl)-4-(9-cyclopentyl-5,7,7-trimethyl-6-oxo-6,7,8,9-tetrahydro-5H-pyrimido[4,5-b][1,4]diazepin-2-ylamino)-3-methoxybenzamide]
< 10 nM | COc1cc(C(=O)NCc2ccncc2)ccc1Nc1ncc2c(n1)N(C1CCCC1)CC1(CC1)C(=O)N2C [Compound I-247, 4-(9′-cyclopentyl-5′-methyl-6′-oxo-5′,6′,8′,9′-tetrahydrospiro[cyclopropane-1,7′-pyrimido[4,5-b][1,4]diazepine]-2′-ylamino)-3-methoxy-N-(pyridin-4-ylmethyl)benzamide]
< 10 nM | COc1cc(C(=O)NCc2ccco2)ccc1Nc1ncc2c(n1)N(C1CCCC1)CC1(CC1)C(=O)N2C [Compound I-248, 4-(9′-cyclopentyl-5′-methyl-6′-oxo-5′,6′,8′,9′-tetrahydrospiro[cyclopropane-1,7′-pyrimido[4,5-b][1,4]diazepine]-2′-ylamino)-N-(furan-2-ylmethyl)-3-methoxybenzamide]
< 10 nM | COc1cc(C(=O)NCc2cccnc2)ccc1Nc1ncc2c(n1)N(C1CCCC1)CC1(CC1)C(=O)N2C [Compound I-249, 4-(9′-cyclopentyl-5′-methyl-6′-oxo-5′,6′,8′,9′-tetrahydrospiro[cyclopropane-1,7′-pyrimido[4,5-b][1,4]diazepine]-2′-ylamino)-3-methoxy-N-(pyridin-3-ylmethyl)benzamide]
< 10 nM | COc1cc(C(=O)NCc2ccccn2)ccc1Nc1ncc2c(n1)N(C1CCCC1)CC(C)(C)C(=O)N2C [Compound I-255, 4-(9-cyclopentyl-5,7,7-trimethyl-6-oxo-6,7,8,9-tetrahydro-5H-pyrimido[4,5-b][1,4]diazepin-2-ylamino)-3-methoxy-N-(pyridin-2-ylmethyl)benzamide]
< 10 nM | COc1cc(C(=O)NC[C@@H]2CC[C@@H](O)C2)ccc1Nc1ncc2c(n1)N(C1CCCC1)CC(C)(C)C(=O)N2C [Compound I-259, 4-(9-cyclopentyl-5,7,7-trimethyl-6-oxo-6,7,8,9-tetrahydro-5H-pyrimido[4,5-b][1,4]diazepin-2-ylamino)-N-((1R,3R)-3-(hydroxycyclopentyl)methyl)-3-methoxybenzamide]
< 10 nM | COc1ccc(NC(=O)c2ccc(Nc3ncc4c(n3)N(C3CCCC3)CC(C)(C)C(=O)N4C)c(OC)c2)cc1 [Compound I-261, 4-(9-cyclopentyl-5,7,7-trimethyl-6-oxo-6,7,8,9-tetrahydro-5H-pyrimido[4,5-b][1,4]diazepin-2-ylamino)-3-methoxy-N-(4-methoxyphenyl)benzamide]
